Laboratory results reported in patent US12508275B2, “Neomycin based compounds, and pharmaceutical use thereof” (UNIVERSITÉ COTE D'AZUR, priority 2019, dated 2025).

What was measured:
[1] = test system: GB5 cells; assay: Clonal expansion (clonal proliferation) of GB5; type: cell-based, human
Protocol: FIG. 2: Compounds 9a-b and 18a-b effect on stemness marker expression, clonal expansion and mitosis in GB5 cells. (A) NESTIN expression was assessed by immunofluorescence in GB5 treated with increasing amount of Compounds 9a-b and 18a. The number of NESTIN positive cells was counted for each treatment and express as percentage of the control (100%). The results are the meaning of at least two separate experiments. […] (C) Clonal expansion analysis was performed with GB5 cells as described in the material and method section. Two and three weeks later, the number of spheroids is counted and reported as percentage of the initial number of cells in the well. The results are the meaning of a minimum of two separate experiments. (D) The number of mitosis in the culture was determined by the detection of the number of cells positive for histone H3 phosphorylated on ser-10 (H3-ser10). H3-ser10 expression was assessed by immunofluorescence in GB5 treated with increasing amount of Compounds 9a-b and 18a. The number of positive cells was counted for each treatment and express as percentage of the control (100%). The results are the meaning of at least two separate experiments.
Clonal proliferation: TG6 and GB5 were seeded at 10 cells/well in 96 wells plate in NS34+ medium alone or containing growing concentration of Compounds 9a-b and 18a-b. Immediately after seeding, the real number of cells in the well was determined by direct count. Two and three weeks later, the resulting number of spheroids in each well was evaluated by a direct count. The % of clonal efficiency was calculated in dividing […].
It was further investigated the effects of selected compounds on GSC clonal expansion as well as their capacity of mitosis (FIGS. 2B and C). Compounds 9a-b and 18a treatment altered GSC clonal expansion and mitosis. The most efficient inhibition of clonal expansion was provided by Compound 9a treatment (IC50<10 uM) while both Compounds 9a-b were the most efficient for mitosis inhibition (IC50<10 uM) (FIGS. 2C and D).

[2] = test system: normal neural stem cells (NNSC); assay: XTT toxicity assay on normal neural stem cells; type: cell-based
Protocol: FIG. 4: Determination of compound toxicity on GSC and normal human cells. (A) GB5 were incubated with growing concentration of Compounds 9a-b and 18a. (B) human normal neural stem cell (NNSC), human normal kidney cells (NHEK), human normal hepatocytes (HEPRG) and (C) human endothelial cells (HUVEC) were treated with growing concentration of Compound 9a. 7 days later, the cells were subjected to an XTT assays as described in the method section. The results are the meaning of at least two separate experiments. Cell death was confirmed by trypan blue staining (not shown).
V—Toxicity tests: NNSC, GB5, TG6, HEK293, and HepaRG, HUVEC were seeded at 2000 cells/well in 96 wells plate in their respective culture mediums alone or containing growing concentration from 10 to 500 uM of Compounds 9a-b. Cultures were incubated 4 days and the cellular toxicity has been evaluated by XTT assays. Cell viability has been also assessed by counting living and dead cells with trypan blue staining.
XTT assays allows, through cell metabolism measurement, to determine a cytotoxic/cytostatic effects. Compounds 9a-b and 18a were tested for their eventual toxicity by XTT assays as described in the material and method section. At the working concentrations 10 to 25 uM, the compounds are not toxic for GSC (FIG. 4A). […]

[3] = test system: GSC expressing a luciferase gene (GB1-luc) brain tumors; assay: Orthotopic GB1-luc xenograft, treatment of already formed tumors; type: in vivo, nude mice; details: 7.5 mg/kg three times a week, live imaging, vs DMSO; 11th week P value=0,017
Protocol: FIG. 3: Nude mice were orthotopically xenografted by luminescent patient derived GSC. (A-B) Two weeks following injections, mice were intraperitoneally injected with 10 mg/kg (n=4), 7.5 mg/kg (n=4) or 5 mg/kg (n=4) of Compound 9a or vehicle alone as control (ctl n=10). A) graphical representation of the average of tumor growth in the control group (n=10) and in each Compound 9a treated groups. B) Survival of the whole population of mice of the untreated and treated groups were compared using a log rank test according to Kaplan Meier method. (R command, see World Wide Web: biostatgv.sentiweb.fr/?module=tests/surv). The solid line represents the survival rate of control untreated mice. The dotted line represents the survival rate of mice treated by compound 9a. C) Mice treatment with compound 9a when the tumors were already formed. Tumor growth representation in mice, treated either with DMSO (control: -♦-) or Compound 9a (-▪-). Tumor growth was controlled every week by live imaging. The solid line represents the tumor growth in control untreated mice. The dotted line represents the tumor growth in mice treated by compound 9a.
To further determine whether Compound 9a might also alter tumor growth of tumors that were already formed before treatment, 50000 GSC expressing a luciferase gene (GB1-luc) for luminescent live imaging were injected in the brain of 12 nude mice. […]

[4] = test system: OCT4, NANOG, SOX2 expression in GB5; assay: OCT4, NANOG, SOX2 pluripotency marker immunofluorescence in GB5; type: cell-based, human; details: GB5, 20 uM

## NCCCCNCCCNC(=O)c1csc(-c2csc(CCNC(=O)CCc3cn(CC4OC(OC5C(O)C(N)CC(N)C5OC5OC(CN)C(O)C(O)C5N)C(O)C4OC4OC(CN)C(O)C(O)C4N)nn3)n2)n1 (stereo not drawn) [Compound 9a, N-(3-((4-Aminobutyl)amino)propyl)-2′-(2-(3-(1-methyl-1H-1,2,3-triazol-4-yl)propanamido)ethyl)-[2,4′-bithiazole]-4-carboxamide-neomycin]
[1]; GB5, spheroids counted after two and three weeks
  GSC clonal expansion: altered
[1]; Homo sapiens, GB5, read-out: inhibition of clonal expansion IC50
  IC50: < 10 µM
[2]; 100 uM and above
  toxicity (XTT): toxic
[2]; between 10 to 50 uM
  toxicity (XTT): not toxic
[3]
  growth of tumors already formed before treatment: repressed tumor growth
[4]
  OCT4, NANOG and SOX2 expression: down regulation
